{
  "source": "paper PMC12456999",
  "about": "“Sulfonyl Homoserine Lactones Are Tunable Probes to Inhibit the Quorum Sensing Receptor RhlR and Reduce Swarming Motility in Pseudomonas aeruginosa” (ACS Infectious Diseases, 2025)",
  "key": {"RhlR": {"target": "T1, RhlR (Pseudomonas aeruginosa, UniProt P54292)", "T1 construct": "expressed in transfected cells; host or cells: E. coli JLD271 (K-12 ΔlacX74 sdiA271::Cam) carrying pJN105-R2 (RhlR expression) and pSC11-rhlI (rhlI'-lacZ reporter)", "T1 sequence (P54292 whole entry)": "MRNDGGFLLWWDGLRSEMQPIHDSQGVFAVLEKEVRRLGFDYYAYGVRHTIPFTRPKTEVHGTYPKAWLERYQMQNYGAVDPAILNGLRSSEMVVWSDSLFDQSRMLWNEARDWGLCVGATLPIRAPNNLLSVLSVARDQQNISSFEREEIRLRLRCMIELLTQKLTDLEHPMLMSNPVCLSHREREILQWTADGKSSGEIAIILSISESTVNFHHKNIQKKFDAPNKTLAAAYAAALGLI", "assay": "P. aeruginosa PA14 ΔrhlIΔlasI RhlR GFP reporter antagonism assay", "type": "cell-based", "conditions": "for Max Inhibition (RhlR): P. aeruginosa PA14 ΔrhlIΔlasI, against 4 μM BHL with 10 μM OdDHL, highest concentrations tested", "protocol": "We were interested in determining whether these new RhlR antagonists identified in an E. coli RhlR reporter maintained their activity in the native organism, P. aeruginosa. […] Antagonism of RhlR was measured in the presence of BHL and OdDHL (the latter signal was needed to induce the production of RhlR via LasR). […] The reasons for this reduction in activity are likely multifold, but we believe that they may stem from the low permeability of P. aeruginosa to small molecules, its lower (native) level of RhlR expression, its abundance of efflux pumps, and/or the cross-interaction of compounds with other targets (LasR, QscR, and potentially others) that then regulate RhlR. […] Nevertheless, these reporter data for sulfonyl HLs 39, 43, 59, and 75 in P. aeruginosa indicate that these compounds are capable of antagonizing RhlR activity in the native host.\nRhlR activity in E. coli strain JLD271 (ΔsdiA) was measured via a β-galactosidase reporter (rhI-lacZ) using the Promega Beta-Glo Assay System as previously described. RhlR activity in P. aeruginosa PA14 (ΔrhlIΔlasI) was measured via a GFP reporter (rhlA-gfp). […] See Supporting Information for both reporter protocols.\nSupporting Information — Aguirre-Figueroa et al.\nP. aeruginosa RhlR reporter assay. RhlR activity in P. aeruginosa PA14 ΔrhlIΔlasI was measured via a GFP reporter. Briefly, a single colony of P. aeruginosa strain PA14 ΔrhlIΔlasI harboring the transcriptional fusion reporter pPROBE-GT rhlA-GFP (Table S1) was grown in LB medium with 40 μg/mL gentamicin overnight (~20 h). The culture was diluted 1:100 in fresh LB medium, without antibiotic, to an OD600 = 0.25 (0.22–0.30) (~1 h). Aliquots (2 μL) of compound DMSO stock solution or serial dilution were added to the inner wells (i.e., non-periphery rows) of a black, clear bottom 96-well plate. To 12 inner wells, DMSO alone (vehicle) was added to serve as controls (negative and positive). For the six negative control wells (no BHL), 198 μL of bacterial culture plus OdDHL (to achieve 10 μM) were added. For the six positive control wells (no test compound), 198 μL of bacterial culture plus OdDHL (10 μM) and BHL (to achieve 4 μM) were added. To all the remaining wells containing test compound, 198 μL of bacterial culture plus OdDHL (10 μM) and BHL (4 μM) were added. Water (200 μL) was added to the outer (periphery) wells to maintain humidity during incubation. Plates were incubated for 4 h at 37 °C. After incubation, the OD600 and GFP production (excitation at 500 nm, emission at 540 nm) were read for each well using a plate reader. To determine levels of RhlR activity, raw GFP production was divided by OD600 to correct for growth variation and then normalized to the negative (0%) and positive (100%) control wells.\nDose-response reporter assay data for compounds in the P. aeruginosa RhlR reporter.\nDose-response curves for RhlR agonism by BHL and for RhlR antagonism by selected compounds against 4 μM BHL using the P. aeruginosa PA14 RhlR reporter are provided below. Compound names are indicated on the x-axis of each plot. All assays performed in triplicate as at least three separate biological replicates. Error bars indicate SD of n = 3 trials. Curve fits generated using GraphPad Prism software (v9.0) using a variable slope sigmoidal curve fit. IC50 values for antagonists […]\nMax Inhibition = 47% Max Inhibition = 59%\nMax Inhibition = 49% Max Inhibition = 67%\n(also on this page, place not known: % Activity % Activity % Activity % Activity % Activity)"}, "bacterial growth": {"test_system": "bacterial growth", "assay": "Effect on bacterial growth (OD600 over time)", "type": "cell-based", "conditions": "at >2 mM concentrations", "protocol": "All new compounds were fully characterized for purity and identity (see Supporting Information). […] The remaining compounds had no effect on growth over the concentration range tested. All compounds were tested in bacteriological assays in triplicate and in at least three separate trials using unique cultures. IC50 and EC50 values in reporter assays were calculated using GraphPad Prism software (version 9.0) with a variable slope sigmoidal curve fit."}},
  "note": "Where two headings read alike, the source gives them in different places.",
  "data": [
    {"smiles": "O=C1OCC[C@@H]1NS(=O)(=O)c1cccc(Br)c1", "note": "[Compound 39, 3-bromo BSHL]", "values": [
      {"measurement": "IC50", "setting": "RhlR", "value": "> 1000", "unit": "µM"},
      {"measurement": "Max Inhibition (RhlR)", "setting": "RhlR", "value": 47, "unit": "%"},
      {"measurement": "effect on bacterial growth", "setting": "bacterial growth", "value": "modest effect on bacterial growth"}
    ]},
    {"smiles": "CCCCCS(=O)(=O)N[C@H]1CCOC1=O", "note": "[Compound 75, C5 ASHL]", "values": [
      {"measurement": "IC50", "setting": "RhlR; P. aeruginosa PA14 ΔrhlIΔlasI RhlR reporter", "value": "> 1000", "unit": "µM"},
      {"measurement": "Max Inhibition (RhlR)", "setting": "RhlR", "value": 67, "unit": "%"}
    ]},
    {"smiles": "O=C1OCC[C@@H]1NS(=O)(=O)c1ccc(Cl)c(Cl)c1", "note": "[Compound 43, 3,4-di-Cl BSHL]", "values": [
      {"measurement": "IC50", "setting": "RhlR", "value": "> 1000", "unit": "µM"},
      {"measurement": "Max Inhibition (RhlR)", "setting": "RhlR", "value": 59, "unit": "%"},
      {"measurement": "effect on bacterial growth", "setting": "bacterial growth", "value": "modest effect on bacterial growth"}
    ]},
    {"smiles": "O=C1OCC[C@@H]1NS(=O)(=O)c1ccc(F)c(F)c1", "note": "[Compound 59, 3,4-di-F BSHL]", "values": [
      {"measurement": "IC50", "setting": "RhlR", "value": "> 1000", "unit": "µM"},
      {"measurement": "Max Inhibition (RhlR)", "setting": "RhlR", "value": 49, "unit": "%"}
    ]}
  ]
}
